# Experimental data published in EP0840781B1, “METHODS AND DEVICES FOR THE REMOVAL OF PSORALENS FROM BLOOD PRODUCTS” (Cerus Corporation, priority 1995, dated 1996).
# Experiment: HPLC retention time as rough estimate of hydrophobicity
# Format: physicochemical
# Conditions: C-18 reversed phase column, methanol / 25 mM KH2PO4 pH 3.5 gradient
# Protocol: Adsorption data were then obtained by HPLC. analysis on the test and control samples. Specifically, a 200 µl sample volume of PC was removed from each tube following the incubation period (special care being taken to ensure that no adsorbent particles were removed with the test samples). […] The addition of methanol lyses platelets and precipitates plasma proteins so that psoralen contained within the platelets is not excluded by the assay.
# Since each of the psoralens were analyzed using the same type of HPLC assay, one can use the psoralens' relative retention times to rank them according to increasing hydrophobicity. […] Strong interactions with cells or plasma proteins could compete with adsorption, thereby interfering with resin binding.
row,HPLC retention time (rough estimate of hydrophobicity) [min],SMILES
1,7.8,"CC[N+](CC)(CC)Cc1c(C)oc2c(C)c3oc(=O)cc(C)c3cc12 [Psoralen A, 4'-(triethylamino) methyl-4,5',8-trimethylpsoralen]"
2,20.0,"COc1c2occc2c(Br)c2ccc(=O)oc12 [Psoralen B, 5-bromo-8-methoxypsoralen]"
3,12.0,"CCN(CC)CCCOc1c2occc2c(Br)c2ccc(=O)oc12 [Psoralen C, 5-bromo-8-(diethylaminopropyloxy)-psoralen]"
